Assay results: patent US20250002446A1, “Acetoacetate Based Ketals” (ARXADA AG, priority 2021, published 2025)

Experiment: Acetal cleavage in simulated gastric fluid (SGF)
Assay type: physicochemical
Conditions: 35-37° C., EtOAc extract analyzed by thin layer chromatography
Method: Acetal cleavage in simulated gastric fluid (SGF): propane-1,2,3-triyl tris(2-(2,4-dimethyl-1,3-dioxan-2-yl)acetate) (1 g, 2 mmol, 1 eq) was mixed with simulated gastric fluid (SGF) (5 g, 5 rel. eq.) at 35-37° C. After 30 min, 1 h and 2 h the mixture was sampled and extracted with EtOAc.

hydrolysis to 1,3-butanediol and propane-1,2,3-triyl tris(3-oxobutanoate) (after 30 min): a majority of the product had hydrolyzed
hydrolysis to 1,3-butanediol and propane-1,2,3-triyl tris(3-oxobutanoate) (after 1 h): hydrolyzation was complete
SMILES: CC1CCOC(C)(CC(=O)OCC(COC(=O)CC2(C)OCCC(C)O2)OC(=O)CC2(C)OCCC(C)O2)O1 (centres unmarked) [propane-1,2,3-triyl tris(2-(2,4-dimethyl-1,3-dioxan-2-yl)acetate)]
